{"source": "ChEMBL document CHEMBL4373744", "about": "“Modifying the lipophilic part of phenylthiazole antibiotics to control their drug-likeness” (Eur J Med Chem, 2020)", "key": {"[1]": {"test_system": "Staphylococcus aureus", "assay": "Antimicrobial activity against vancomycin-resistant Staphylococcus aureus 10 by broth liquid microdilution method", "assay_type": "functional"}, "[2]": {"test_system": "Staphylococcus aureus", "assay": "Antimicrobial activity against vancomycin-resistant Staphylococcus aureus 12 by broth liquid microdilution method", "assay_type": "functional"}, "[3]": {"test_system": "Escherichia coli", "assay": "Antimicrobial activity against Escherichia coli JW55031 harboring deltatolC mutant by broth liquid microdilution method", "assay_type": "functional"}, "[4]": {"test_system": "Escherichia coli", "assay": "Antimicrobial activity against Escherichia coli BW25113 by broth liquid microdilution method", "assay_type": "functional"}, "[5]": {"assay": "Aqueous solubility of compound in pH 6.8 phosphate buffer", "assay_type": "physicochemical"}, "[6]": {"assay": "Cmax in Sprague-Dawley rat at 50 mg/kg, po via gavage administered as a single dose measured upto 24 hrs by LC/MS/MS analysis", "assay_type": "ADME, organism-based", "set-up": "dose 50 mg/kg, route oral", "conditions": "in vivo"}, "[7]": {"assay": "Tmax in Sprague-Dawley rat at 50 mg/kg, po via gavage administered as a single dose measured upto 24 hrs by LC/MS/MS analysis", "assay_type": "ADME, organism-based", "conditions": "in vivo"}, "[8]": {"assay": "AUC in Sprague-Dawley rat at 50 mg/kg, po via gavage administered as a single dose measured upto 24 hrs by LC/MS/MS analysis", "assay_type": "ADME, organism-based", "set-up": "time < 24 hr, dose 50 mg/kg, route oral", "conditions": "in vivo"}, "[9]": {"assay": "Clearance in Sprague-Dawley rat at 50 mg/kg, po via gavage administered as a single dose measured upto 24 hrs by LC/MS/MS analysis", "assay_type": "ADME, organism-based", "conditions": "in vivo"}, "[10]": {"assay": "Half life in Sprague-Dawley rat at 50 mg/kg, po via gavage administered as a single dose measured upto 24 hrs by LC/MS/MS analysis", "assay_type": "ADME, organism-based", "conditions": "in vivo"}, "[11]": {"assay": "Volume of distribution in Sprague-Dawley rat at 50 mg/kg, po via gavage administered as a single dose measured upto 24 hrs by LC/MS/MS analysis", "assay_type": "ADME, organism-based", "conditions": "in vivo"}, "[12]": {"test_system": "Staphylococcus epidermidis", "assay": "Antimicrobial activity against methicillin-resistant Staphylococcus epidermidis NRS101 by broth liquid microdilution method", "assay_type": "functional"}, "[13]": {"test_system": "Enterococcus faecium", "assay": "Antimicrobial activity against vancomycin-resistant Enterococcus faecium ATCC 700221 by broth liquid microdilution method", "assay_type": "functional"}, "[14]": {"test_system": "Listeria monocytogenes", "assay": "Antimicrobial activity against Listeria monocytogenes ATCC 19111 by broth liquid microdilution method", "assay_type": "functional"}, "[15]": {"test_system": "Streptococcus pneumoniae", "assay": "Antimicrobial activity against cephalosporin-resistant Streptococcus pneumoniae ATCC 51916 by broth liquid microdilution method", "assay_type": "functional"}, "[16]": {"test_system": "Streptococcus pneumoniae", "assay": "Antimicrobial activity against methicillin-resistant Streptococcus pneumoniae ATCC 700677 by broth liquid microdilution method", "assay_type": "functional"}, "[17]": {"test_system": "Staphylococcus aureus", "assay": "Bactericidal activity against methicillin-resistant Staphylococcus aureus USA400 assessed as 3 log reduction in number of colony forming units at 5 times MIC incubated for 10 hrs by aliquots transfer to tryptic soy agar and grown for 18 to 20 hrs by Time-kill assay", "assay_type": "functional, organism-based"}, "[18]": {"test_system": "Staphylococcus aureus", "assay": "Bactericidal activity against methicillin-resistant Staphylococcus aureus USA400 assessed as reduction in number of colony forming units at 5 times MIC incubated for 12 hrs by aliquots transfer to tryptic soy agar and grown for 18 to 20 hrs by Time-kill assay relative to control", "assay_type": "functional", "set-up": "scale not given: the % may be the effect or the level left"}, "[19]": {"test_system": "Staphylococcus aureus", "assay": "Antibiofilm activity against methicillin-resistant Staphylococcus aureus USA300 at 4 times MIC incubated for 24 hrs by crystal violet staining based assay relative to control", "assay_type": "functional"}, "[20]": {"test_system": "Staphylococcus aureus", "assay": "Antibiofilm activity against methicillin-resistant Staphylococcus aureus USA300 at 2 times MIC incubated for 24 hrs by crystal violet staining based assay relative to control", "assay_type": "functional"}, "[21]": {"test_system": "Staphylococcus aureus", "assay": "Antibiofilm activity against methicillin-resistant Staphylococcus aureus USA300 incubated for 24 hrs by crystal violet staining based assay", "assay_type": "functional, organism-based"}, "[22]": {"test_system": "Staphylococcus aureus", "assay": "Antimicrobial activity against methicillin-resistant Staphylococcus aureus USA400 infected in mouse J774 cells assessed as reduction in […] bacterial count at 2 times MIC incubated for 24 hrs relative to control", "assay_type": "functional", "set-up": "scale not given: the % may be the effect or the level left"}, "[23]": {"test_system": "Staphylococcus aureus", "assay": "Antimicrobial activity against methicillin-resistant Staphylococcus aureus USA400 infected in mouse J774 cells assessed as reduction in […] bacterial count at 4 times MIC incubated for 24 hrs relative to control", "assay_type": "functional", "set-up": "scale not given: the % may be the effect or the level left"}, "[24]": {"test_system": "J774", "assay": "Cytotoxicity against mouse J774 cells assessed as reduction in cell viability at 4 to 8 ug/ml incubated for 24 hrs by MTS assay", "assay_type": "cell-based", "conditions": "j774, 24 h"}, "[25]": {"test_system": "Staphylococcus aureus", "assay": "microbe, parasite or virus in culture", "conditions": "ATCC 6538", "description": "Antimicrobial activity against methicillin-sensitive Staphylococcus aureus ATCC 6538 by broth liquid microdilution method"}, "[26]": {"test_system": "Staphylococcus aureus", "assay": "microbe, parasite or virus in culture", "conditions": "NRS 107", "description": "Antimicrobial activity against methicillin-sensitive Staphylococcus aureus NRS 107 by broth liquid microdilution method"}, "[27]": {"test_system": "Staphylococcus aureus", "assay": "microbe, parasite or virus in culture", "conditions": "NRS119", "description": "Antimicrobial activity against methicillin-resistant Staphylococcus aureus NRS119 by broth liquid microdilution method"}, "[28]": {"test_system": "Staphylococcus aureus", "assay": "microbe, parasite or virus in culture", "conditions": "NRS123", "description": "Antimicrobial activity against methicillin-resistant Staphylococcus aureus NRS123 by broth liquid microdilution method"}, "[29]": {"test_system": "Staphylococcus aureus", "assay": "microbe, parasite or virus in culture", "conditions": "NRS384", "description": "Antimicrobial activity against methicillin-resistant Staphylococcus aureus NRS384 by broth liquid microdilution method"}, "[30]": {"test_system": "Staphylococcus aureus", "assay": "microbe, parasite or virus in culture", "conditions": "NRS 385", "description": "Antimicrobial activity against methicillin-resistant Staphylococcus aureus NRS 385 by broth liquid microdilution method"}, "[31]": {"test_system": "Staphylococcus aureus", "assay": "microbe, parasite or virus in culture", "conditions": "NRS 386", "description": "Antimicrobial activity against methicillin-resistant Staphylococcus aureus NRS 386 by broth liquid microdilution method"}, "[32]": {"test_system": "Enterococcus faecalis", "assay": "microbe, parasite or virus in culture", "conditions": "ATCC 51299"}}, "note": "Calls of active or inactive are those of the source. The rule behind the calls is not given here."}
{"smiles": "C/C(=N\\NC(=N)N)c1sc(-c2ccc(C#CCCN3CCC3)cc2)nc1C", "values": [{"measurement": "MBC", "setting": "[1]", "result": 8, "unit": "µg/mL"}, {"measurement": "MIC", "setting": "[1]", "result": 2, "unit": "µg/mL"}, {"measurement": "MBC", "setting": "[2]", "result": 16, "unit": "µg/mL"}, {"measurement": "MIC", "setting": "[2]", "result": 4, "unit": "µg/mL"}, {"measurement": "MIC", "setting": "[3]", "result": 32, "unit": "µg/mL"}, {"measurement": "MIC", "setting": "[4]", "result": "> 64", "unit": "µg/mL"}, {"measurement": "solubility", "setting": "[5]", "result": 500, "unit": "µM"}, {"measurement": "Cmax", "setting": "[6]", "result": 15600, "unit": "ng/mL"}, {"measurement": "Tmax", "setting": "[7]", "result": 1, "unit": "h"}, {"measurement": "AUC at 24 h", "setting": "[8]", "result": 162, "unit": "µg·h/mL"}, {"measurement": "CL/F", "setting": "[9]", "result": 5.17, "unit": "mL/min"}, {"measurement": "half-life", "setting": "[10]", "result": 2.9, "unit": "h"}, {"measurement": "Vd", "setting": "[11]", "result": 1.29, "unit": "L"}, {"measurement": "MBC", "setting": "[12]", "result": 4, "unit": "µg/mL"}, {"measurement": "MIC", "setting": "[12]", "result": 1, "unit": "µg/mL"}, {"measurement": "MBC", "setting": "[13]", "result": 8, "unit": "µg/mL"}, {"measurement": "MIC", "setting": "[13]", "result": 2, "unit": "µg/mL"}, {"measurement": "MBC", "setting": "[14]", "result": 8, "unit": "µg/mL"}, {"measurement": "MIC", "setting": "[14]", "result": 4, "unit": "µg/mL"}, {"measurement": "MBC", "setting": "[15]", "result": 8, "unit": "µg/mL"}, {"measurement": "MIC", "setting": "[15]", "result": 2, "unit": "µg/mL"}, {"measurement": "MBC", "setting": "[16]", "result": 8, "unit": "µg/mL"}, {"measurement": "MIC", "setting": "[16]", "result": 2, "unit": "µg/mL"}, {"measurement": "Activity", "setting": "[17]", "result": "Active"}, {"measurement": "Activity", "setting": "[18]", "result": 100, "unit": "%"}, {"measurement": "Activity", "setting": "[19]", "result": 41, "unit": "%"}, {"measurement": "Activity", "setting": "[20]", "result": 31, "unit": "%"}, {"measurement": "Activity", "setting": "[21]", "result": "Dose-dependent effect"}, {"measurement": "Activity", "setting": "[22]", "result": 98, "unit": "%"}, {"measurement": "Activity", "setting": "[23]", "result": 99.7, "unit": "%"}, {"measurement": "Activity", "setting": "[24]", "result": "Non-Toxic"}, {"measurement": "MBC", "setting": "[25]", "result": 8, "unit": "µg/mL"}, {"measurement": "MIC", "setting": "[25]", "result": 2, "unit": "µg/mL"}, {"measurement": "MBC", "setting": "[26]", "result": 8, "unit": "µg/mL"}, {"measurement": "MIC", "setting": "[26]", "result": 2, "unit": "µg/mL"}, {"measurement": "MBC", "setting": "[27]", "result": 8, "unit": "µg/mL"}, {"measurement": "MIC", "setting": "[27]", "result": 2, "unit": "µg/mL"}, {"measurement": "MBC", "setting": "[28]", "result": 4, "unit": "µg/mL"}, {"measurement": "MIC", "setting": "[28]", "result": 2, "unit": "µg/mL"}, {"measurement": "MBC", "setting": "[29]", "result": 4, "unit": "µg/mL"}, {"measurement": "MIC", "setting": "[29]", "result": 2, "unit": "µg/mL"}, {"measurement": "MBC", "setting": "[30]", "result": 4, "unit": "µg/mL"}, {"measurement": "MIC", "setting": "[30]", "result": 4, "unit": "µg/mL"}, {"measurement": "MBC", "setting": "[31]", "result": 8, "unit": "µg/mL"}, {"measurement": "MIC", "setting": "[31]", "result": 2, "unit": "µg/mL"}, {"measurement": "MBC", "setting": "[32]", "result": 16, "unit": "µg/mL"}, {"measurement": "MIC", "setting": "[32]", "result": 4, "unit": "µg/mL"}]}
{"smiles": "CC(=O)NC[C@H]1CN(c2ccc(N3CCOCC3)c(F)c2)C(=O)O1", "note": "[LINEZOLID]", "values": [{"measurement": "MBC", "setting": "[1]", "result": "> 64", "unit": "µg/mL"}, {"measurement": "MIC", "setting": "[1]", "result": 1, "unit": "µg/mL"}, {"measurement": "MBC", "setting": "[2]", "result": 64, "unit": "µg/mL"}, {"measurement": "MIC", "setting": "[2]", "result": 1, "unit": "µg/mL"}, {"measurement": "MBC", "setting": "[12]", "result": 16, "unit": "µg/mL"}, {"measurement": "MIC", "setting": "[12]", "result": 1, "unit": "µg/mL"}, {"measurement": "MBC", "setting": "[13]", "result": 16, "unit": "µg/mL"}, {"measurement": "MIC", "setting": "[13]", "result": 1, "unit": "µg/mL"}, {"measurement": "MBC", "setting": "[14]", "result": 16, "unit": "µg/mL"}, {"measurement": "MIC", "setting": "[14]", "result": "≤ 0.5", "unit": "µg/mL"}, {"measurement": "MBC", "setting": "[15]", "result": 32, "unit": "µg/mL"}, {"measurement": "MBC", "setting": "[16]", "result": 16, "unit": "µg/mL"}, {"measurement": "MBC", "setting": "[25]", "result": 16, "unit": "µg/mL"}, {"measurement": "MIC", "setting": "[25]", "result": 1, "unit": "µg/mL"}, {"measurement": "MBC", "setting": "[26]", "result": 64, "unit": "µg/mL"}, {"measurement": "MIC", "setting": "[26]", "result": 1, "unit": "µg/mL"}, {"measurement": "MBC", "setting": "[27]", "result": "> 64", "unit": "µg/mL"}, {"measurement": "MIC", "setting": "[27]", "result": 64, "unit": "µg/mL"}, {"measurement": "MBC", "setting": "[28]", "result": 32, "unit": "µg/mL"}, {"measurement": "MIC", "setting": "[28]", "result": 1, "unit": "µg/mL"}, {"measurement": "MBC", "setting": "[29]", "result": 32, "unit": "µg/mL"}, {"measurement": "MIC", "setting": "[29]", "result": 1, "unit": "µg/mL"}, {"measurement": "MBC", "setting": "[30]", "result": 32, "unit": "µg/mL"}, {"measurement": "MIC", "setting": "[30]", "result": 1, "unit": "µg/mL"}, {"measurement": "MBC", "setting": "[31]", "result": 64, "unit": "µg/mL"}, {"measurement": "MBC", "setting": "[32]", "result": 16, "unit": "µg/mL"}]}
